According to patent publication US20130164814A1, “CONTROL OF ENZYMES IN THE PRODUCTION OF PULP” (KEMIRA OYJ, priority 2010, published 2013):

Key:
natural catalase = experiment: Peroxide concentration in 3% recovered paper pulp with catalase-containing process water; assay type: biochemical, bacteria; conditions: for Measured H2O2: 3% pulp, dose SPC 6.7 kg/t or H2O2 2.0 kg/t, + 7 kg/t H2O2 at 0 min
Experimental: The effect of SPC product A was studied with a system consisting of recycled fiber pulp and process water with natural catalase. Pulp for the experiment was produced at a recycled fiber pilot plant pulper. Old magazines and old newspapers (OMG/ONP 50/50) were shredded and repulped using process water from a European recycled fiber plant. in the pilot pulper at 19% consistency for 20 minutes with alkaline soap chemistry without peroxide (NaOH 10 kg/t (100%), water glass 15 kg/t (product), soap 5 kg/t). The pulp was stored in freezer until used. Process water from the recycled fiber pilot plant was used in the experiments for diluting the pulp into 3%.
6.7 kg/t of SPC A was added to the pulp and stirred for 5 minutes. After that, 7 kg/t of 100% peroxide was added (at 0 min in FIG. 2 and Table 3) and the concentration of peroxide in the pulp filtrate was measured against time. The SPC addition brought into the system slightly below 2.0 kg peroxide /ton. Therefore, 2.0 kg of peroxide/t representing a reference sample was added to the pulp and stirred for 5 minutes. Again, after that 7 kg/t of 100% peroxide was added (at 0 min in FIG. 2 and Table 3) and the concentration of peroxide was determined by titration against time from the pulp filtrate.

[1] = system: commercial catalase enzyme; experiment: Peroxide decomposition in pure water-peroxide-catalase system (titration against time); assay type: biochemical; conditions: 100 mg/L SPC
Experimental: (§1) Sodium percarbonate (SPC product E) was tested in a pure distilled water system containing peroxide (210 mg/L), commercial catalase enzyme (1 μL/L) and NaOH to adjust the pH to 9.7 corresponding to the alkaline conditions in a recycled fiber plant. The size of SPC particles comprising NaCO3 coated with Na2SO4 was between 6 and 900 micrometers with maximum 1% >1.6 mm and maximum 2% <0.15 mm. Peroxide decomposition was measured by titration against time. Higher residual peroxide level was obtained with SPC than without any catalase control additive with water-catalase-peroxide system at pH 9.7. Catalase destroyed the 210 mg/I of peroxide very rapidly (FIG. 1, black square). Addition of 100 mg/L of SPC was able to retain the residual peroxide concentration at markedly higher level (triangle). After some initial peroxide degradation, the peroxide level stabilized to ˜80 mg/L. It is known that SPC brings peroxide in the system; this was measured to be 30 mg/L (triangle dotted line). […] Probably catalase enzyme managed to degrade a part of the added peroxide before it was inactivated.

[2] = Effect of SPC on the peroxide titration (SPC without catalase and without added H2O2); assay type: physicochemical; conditions: 100 mg/L SPC
Experimental: as §1

SMILES	Measured H2O2 (natural catalase; 0 min)	Measured H2O2 (natural catalase; 10 min)	Measured H2O2 (natural catalase; 30 min)	Measured H2O2 (natural catalase; 60 min)	Measured benefit: peroxide higher than what only came from SPC ([1]; water-catalase-peroxide system)	Peroxide decomposition compared with an equal amount of added peroxide (natural catalase; 3% pulp made of recovered paper)	Stabilized peroxide level after initial degradation ([1]; 210 mg/L peroxide, catalase 1 μL/L, pH 9.7)	Peroxide brought into the system by SPC [2]
OO [H2O2, hydrogen peroxide, reference compound]	8.7 kg/t	6.4 kg/t	5.8 kg/t	5.2 kg/t	–	–	–	–
O=C([O-])[O-].O=C([O-])[O-].OO.OO.OO.[Na+].[Na+].[Na+].[Na+] [SPC product E, sodium percarbonate]	–	–	–	–	50 mg/L	–	–	–
O=C([O-])[O-].O=C([O-])[O-].OO.OO.OO.[Na+].[Na+].[Na+].[Na+] [SPC, sodium percarbonate]	8.7 kg/t	7.9 kg/t	7.4 kg/t	7.0 kg/t	–	Less peroxide decomposed	~80 mg/L	30 mg/L
